Data on 4 substances can be found in BindingDB's records for doi:10.1016/j.bmc.2019.115214 (Nankai University, 2020).

One may read the IC50 as the concentration at which inhibition is half-maximal. Low values mean greater potency in that assay, high ones weaker potency in that assay.

This test is described as follows: Inhibition of HIV1 gp41- induced cell-cell fusion between viral envelope expressed in human HL2/3 cells to CD4/CCR5 receptor expressed TZM-bl cells after 6 hrs by luciferase assay.
Take “H-RIQQIEQKIHHIEQRIQQIEQLLQLTVWGIKQLQARIL-OH”: half-maximal inhibition (IC50) required 251 nM.
As for “H-RIQQIEQKIHHIEQRIQQIEQRIEAQQHLLQLTVWGIKQLQARIL-OH”, the figure is 39 nM; as for “H-RIQQIEQKIHHIEQRIQQIEQRISGIVQQQNNLLRIEAQQHLLQLTVWGIKQLQARIL-OH”, 82 nM.
In the case of H-YTSLIHSLIEEQNQQEKNEQELLELDKWALWNWF-OH it was 2.5 nM.
